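In this assay, cells in 96-well plates receive the compound at five concentrations for 48 hours. Endpoints are linearly interpolated between the surrounding concentrations. At the GI50, growth is halved.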 The source made the active and inactive calls. Cut-off read from the data, not from the text of the source: active = GI50 up to about 1.1 µM and inactive = higher.
Key:
Test in all cases: DTP human tumour cell line panel, 48 h
A549 = tested on: A549
HL-60 = tested on: HL-60
SF-295 = tested on: SF-295
NCI-H522 = tested on: NCI-H522
HOP-62 = tested on: HOP-62
PC-3 = tested on: PC-3
CAKI-1 = tested on: CAKI-1
CCRF-CEM = tested on: CCRF-CEM
SN12C = tested on: SN12C
SK-MEL-5 = tested on: SK-MEL-5
M14 = tested on: M14
MDA-MB-231 = tested on: MDA-MB-231
OVCAR-4 = tested on: OVCAR-4
SK-MEL-2 = tested on: SK-MEL-2
TK-10 = tested on: TK-10
SR = tested on: SR
K562 = tested on: K562
ACHN = tested on: ACHN
UACC-257 = tested on: UACC-257
UO-31 = tested on: UO-31
SK-MEL-28 = tested on: SK-MEL-28
LOX IMVI = tested on: LOX IMVI
KM12 = tested on: KM12
U-251 = tested on: U-251
COLO 205 = tested on: COLO 205
IGROV-1 = tested on: IGROV-1
UACC-62 = tested on: UACC-62
DU-145 = tested on: DU-145
MDA-N = tested on: MDA-N
EKVX = tested on: EKVX
Hs-578T = tested on: Hs-578T
NCI-H460 = tested on: NCI-H460
MOLT-4 = tested on: MOLT-4
NCI/ADR-RES = tested on: NCI/ADR-RES
HCT-15 = tested on: HCT-15
A498 = tested on: A498
SK-OV-3 = tested on: SK-OV-3
SF-539 = tested on: SF-539
Malme-3M = tested on: Malme-3M
HT-29 = tested on: HT-29
MDA-MB-435 = tested on: MDA-MB-435
OVCAR-8 = tested on: OVCAR-8
BT-549 = tested on: BT-549
RPMI-8226 = tested on: RPMI-8226
786-0 = tested on: 786-0
SNB-75 = tested on: SNB-75
T47D = tested on: T47D
SW-620 = tested on: SW-620
SNB-19 = tested on: SNB-19
OVCAR-3 = tested on: OVCAR-3
HOP-92 = tested on: HOP-92
SF-268 = tested on: SF-268
HCT-116 = tested on: HCT-116
RXF 393 = tested on: RXF 393
NCI-H23 = tested on: NCI-H23
NCI-H226 = tested on: NCI-H226

Cc1ccc(Nc2nc(=O)c3c([nH]c4ccccc43)s2)cc1
GI50 (A549): 12.6 µM (inactive) | GI50 (HL-60): 14.8 µM (inactive) | GI50 (SF-295): 11.8 µM (inactive) | GI50 (NCI-H522): 14.6 µM (inactive) | GI50 (HOP-62): 10.2 µM (inactive) | GI50 (PC-3): 15.1 µM (inactive) | GI50 (CAKI-1): 8.55 µM (inactive) | GI50 (CCRF-CEM): 20.1 µM (inactive) | GI50 (SN12C): 15 µM (inactive) | GI50 (SK-MEL-5): 8.32 µM (inactive) | GI50 (M14): 6.59 µM (inactive) | GI50 (MDA-MB-231): 17.1 µM (inactive) | GI50 (OVCAR-4): 18.1 µM (inactive) | GI50 (SK-MEL-2): 14.2 µM (inactive) | GI50 (TK-10): 11.3 µM (inactive) | GI50 (SR): 4.68 µM (inactive) | GI50 (K562): 6.27 µM (inactive) | GI50 (ACHN): 16.2 µM (inactive) | GI50 (UACC-257): 17.1 µM (inactive) | GI50 (UO-31): 2.9 µM (inactive) | GI50 (SK-MEL-28): 21.2 µM (inactive) | GI50 (LOX IMVI): 13 µM (inactive) | GI50 (KM12): 3.43 µM (inactive) | GI50 (U-251): 12.8 µM (inactive) | GI50 (COLO 205): 10.9 µM (inactive) | GI50 (IGROV-1): 13.7 µM (inactive) | GI50 (UACC-62): 3.84 µM (inactive) | GI50 (DU-145): 18.6 µM (inactive) | GI50 (MDA-N): 2.34 µM (inactive) | GI50 (EKVX): 27.8 µM (inactive) | GI50 (Hs-578T): 27.2 µM (inactive) | GI50 (NCI-H460): 10.1 µM (inactive) | GI50 (MOLT-4): 21.7 µM (inactive) | GI50 (NCI/ADR-RES): 14.2 µM (inactive) | GI50 (HCT-15): 7.55 µM | GI50 (A498): 18.1 µM (inactive) | GI50 (SK-OV-3): 28.1 µM (inactive) | GI50 (SF-539): 15.7 µM (inactive) | GI50 (Malme-3M): 10.6 µM (inactive) | GI50 (HT-29): 10.8 µM (inactive) | GI50 (MDA-MB-435): 2.48 µM (inactive) | GI50 (OVCAR-8): 15.4 µM (inactive) | GI50 (BT-549): 18.2 µM (inactive) | GI50 (RPMI-8226): 4.21 µM (inactive) | GI50 (786-0): 14.5 µM (inactive) | GI50 (SNB-75): 16.1 µM (inactive) | GI50 (T47D): 15.4 µM (inactive) | GI50 (SW-620): 10.8 µM (inactive) | GI50 (SNB-19): 26.4 µM (inactive) | GI50 (OVCAR-3): 14 µM (inactive) | GI50 (HOP-92): 10.1 µM (inactive) | GI50 (SF-268): 16.7 µM (inactive)

CO/C(N)=C(C#N)/N=C/c1ccc2ccccc2c1
GI50 (A549): 77.6 µM (inactive) | GI50 (HL-60): 3.61 µM (inactive) | GI50 (SF-295): 33.2 µM (inactive) | GI50 (NCI-H522): > 100 µM (inactive) | GI50 (HOP-62): 23.2 µM (inactive) | GI50 (PC-3): 19.9 µM (inactive) | GI50 (CAKI-1): 39.1 µM (inactive) | GI50 (CCRF-CEM): 24.8 µM (inactive) | GI50 (SN12C): > 100 µM (inactive) | GI50 (SK-MEL-5): 13 µM (inactive) | GI50 (MDA-MB-231): 19.5 µM (inactive) | GI50 (SK-MEL-2): 31.1 µM (inactive) | GI50 (TK-10): > 100 µM (inactive) | GI50 (SR): 27.6 µM (inactive) | GI50 (K562): 4.72 µM (inactive) | GI50 (ACHN): 15.9 µM (inactive) | GI50 (UACC-257): 7.52 µM (inactive) | GI50 (UO-31): 58.2 µM (inactive) | GI50 (SK-MEL-28): > 100 µM (inactive) | GI50 (LOX IMVI): 33.2 µM (inactive) | GI50 (KM12): 23.1 µM (inactive) | GI50 (U-251): 30.8 µM (inactive) | GI50 (COLO 205): 17.9 µM (inactive) | GI50 (IGROV-1): 43.6 µM (inactive) | GI50 (UACC-62): 3.06 µM (inactive) | GI50 (HCT-116): 76.2 µM (inactive) | GI50 (DU-145): > 100 µM (inactive) | GI50 (MDA-N): 8.41 µM (inactive) | GI50 (EKVX): 64.3 µM (inactive) | GI50 (Hs-578T): 46.7 µM (inactive) | GI50 (MOLT-4): 30.6 µM (inactive) | GI50 (NCI/ADR-RES): 13 µM (inactive) | GI50 (A498): 33 µM (inactive) | GI50 (SK-OV-3): 82.6 µM (inactive) | GI50 (RXF 393): > 100 µM (inactive) | GI50 (Malme-3M): > 100 µM (inactive) | GI50 (HT-29): 18.5 µM (inactive) | GI50 (NCI-H23): > 100 µM (inactive) | GI50 (MDA-MB-435): 7.1 µM (inactive) | GI50 (OVCAR-8): 72.3 µM (inactive) | GI50 (BT-549): 18.5 µM (inactive) | GI50 (RPMI-8226): 17.1 µM (inactive) | GI50 (786-0): 78.5 µM (inactive) | GI50 (SNB-75): 78.9 µM (inactive) | GI50 (NCI-H226): > 100 µM (inactive) | GI50 (T47D): 8.73 µM (inactive) | GI50 (SW-620): > 100 µM (inactive) | GI50 (OVCAR-3): 24.2 µM (inactive) | GI50 (HOP-92): 34.5 µM (inactive) | GI50 (SF-268): > 100 µM (inactive)
